The results in this text go back to patent publication US10226453B2, “3-(1H-indol-2-yl)-1H-pyrazolo[4,3-B]pyridines and therapeutic uses thereof” (Samumed, LLC, priority 2015, dated 2019).

Holding throughout (format): cell-based
Assay [1] deals with primary human fibroblasts derived from IPF patients (LL29 cells) treated with TGF-β1. The experiment in a line: Inhibition of the fibrotic process: αSMA staining in TGF-β1 treated primary human fibroblasts from IPF patients (LL29 cells). The conditions noted are these: Fibroblast, 96 h, TGF-β1 20 ng/mL, 4 days, % αSMA positive cells. An excerpt:
Representative compounds were screened using primary human fibroblasts (derived from IPF patients) treated with TGF-β1 to determine their ability to inhibit the fibrotic process.
Primary human fibroblasts derived from IPF patients (LL29 cells) [^1Xiaoqiu Liu, et. al., “Fibrotic Lung Fibroblasts Show Blunted Inhibition by cAMP Due to Deficient cAMP Response Element-Binding Protein Phosphorylation”, Journal of Pharmacology and Experimental Therapeutics (2005), 315(2), 678-687; ^2Watts, K. L., et. al., “RhoA signaling modulates cyclin D1 expression in human lung fibroblasts; implications for idiopathic pulmonary fibrosis”, Respiratory Research (2006), 7(1), 88] were obtained from American Type Culture Collection (ATCC) and expanded in F12 medium supplemented with 15% Fetal Bovine Serum and Penicillin/Streptomycin.
Each compound was dissolved in DMSO as a 10 mM stock and used to prepare compound source plates. Serial dilution (1:2, 11-point dose-response curves from 10 μM to 1.87 nM) and compound transfer was performed using the ECHO 550 (Labcyte, Sunnyvale, Calif.) into 384-well clear bottom assay plates (Greiner Bio-One) with appropriate DMSO backfill for a final DMSO concentration of 0.1%. LL29 cells are plated at 1,500 cells/well in 80 μL/well F12 medium supplemented with 1% Fetal Bovine Serum. One hour after addition of the cells, TGF-β1 (Peprotech; 20 ng/mL) was added to the plates to induce fibrosis (ref. 1 and 2 above). Wells treated with TGF-β1 and containing DMSO were used as controls. Cells were incubated at 37° C. and 5% CO2 for 4 days. Following incubation for 4 days, SYTOX green nucleic acid stain (Life Technologies [Thermo Fisher Scientific]) was added to the wells at a final concentration of 1 μM and incubated at room temperature for 30 min. Cells were then fixed using 4% formaldehyde (Electron Microscopy Sciences), washed 3 times with PBS followed by blocking and permeabilization using 3% Bovine Serum Albumin (BSA; Sigma) and 0.3% Triton X-100 (Sigma) in PBS. Cells were then stained with antibody specific to α-smooth muscle actin (αSMA; Abcam) (ref. 1 and 2 above) in 3% Bovine Serum Albumin (BSA; Sigma) and 0.3% Triton X-100 (Sigma) in PBS, and incubated overnight at 4° C. Cells were then washed 3 times with PBS, followed by incubation with Alexa Flor-647 conjugated secondary antibody (Life Technologies [Thermo Fisher Scientific]) and DAPI at room temperature for 1 hour. Cells were then washed 3 times with PBS and plates were sealed for imaging. αSMA staining was imaged by excitation at 630 nm and emission at 665 nm and quantified using the Compartmental Analysis program on the CellInsight CX5 (Thermo Scientific). Dead or apoptotic cells were excluded from analysis based on positive SYTOX green staining. % of total cells positive for αSMA were counted in each well and normalized to the average of 11 wells treated with TGF-β1 on the same plate using Dotmatics' Studies Software. The normalized averages (fold change over untreated) of 3 replicate wells for each compound concentration were used to create dose-responses curves and EC50 values were calculated using non-linear regression curve fit in the Dotmatics' Studies Software. For EC50 of >10 μM, the percent inhibition at 10 μM is provided.

A further assay has as its system IL-6 (THP-1 cells). Description: IL-6 inhibition in LPS-stimulated THP-1 human monocyte cells (HTRF). The conditions noted are these: LPS 500 ng/mL, 22 hours, IL6 HTRF. The protocol: Human monocyte cell line (THP-1 cells; Catalog # TIB-202, ATCC, Manassas, Va.) were cultured in Roswell Park Memorial Institute (RPMI) 1640 Medium (Catalog #21870-100, Buffalo, N.Y.) with 1% L-glutamine, 1% HEPES, 1% Sodium Pyruvate, 2% Sodium Bicarbonate supplemented with 100 units/mL penicillin, 50 μg/mL streptomycin, 2-mercaptoethanol (0.05 mM) [basal medium] and 10% fetal bovine serum (Catalog #16140089, Life Technologies, Carlsbad, Calif.) at 37° C. and 5% CO2.
THP-1 cells were cultured in basal media with 1% FBS for 24 hours before the start of the assay. Each compound was dissolved in DMSO as a 10 mM stock and used to prepare compound source plates. Serial dilution (1:3, 10-point dose-response curves starting from 10 μM) and compound transfer was performed using the ECHO 550 (Labcyte, Sunnyvale, Calif.) into 384-well white low volume assay plates (Greiner Bio-One) with appropriate DMSO backfill for a final DMSO concentration of 0.1%. THP-1 cells were plated at 5000 cells/well in the 384-well plates and incubated at 37° C. for 2 h. 500 ng/mL of LPS was added after 2 hours and cells were incubated for another 22 hours at 37° C. Plates were spun in a centrifuge for 1 minute at […] and a mixture of anti-IL6 XL665, and anti-IL6 Cryptate diluted in reconstitution buffer (Cisbio Inc.) was added to each well. Following incubation for 3 hrs at room temperature, Homogeneous Time-Resolved Fluorescence (HTRF) was measured using the Envision (Perkin Elmer) at 665 nm and […]. The ratio of fluorescence at 665 nm to 620 nm was used as a readout for IL6 quantification. All samples were processed in duplicate. Readings were normalized to DMSO treated cells and normalized activities were utilized for EC50 calculations using the dose-response log (inhibitor) vs. response-variable slope (four parameters) nonlinear regression feature available in GraphPad Prism 5.0 (or Dotmatics). For EC50 of >10 μM, the percent inhibition at 10 μM is provided.
On the technique in general: In TR-FRET formats the signal depends on donor and acceptor labels being close together.

The subject of assay [2] is Wnt activity (Sp5-Luc reporter, SW480 colon carcinoma cells). Description: Wnt activity screening assay: Sp5-Luc reporter gene in SW480 colon carcinoma cells. The conditions noted are these: Homo sapiens, overnight incubation, 10-point curve from 10 μM. The text has this: The screening assay for Wnt activity is described as follows. Reporter cell lines can be generated by stably transducing cancer cell lines (e.g., colon cancer) or primary cells (e.g., IEC-6 intestinal cells) with a lentiviral construct that includes a Wnt-responsive promoter driving expression of the firefly luciferase gene.
SW480 colon carcinoma cells were transduced with a lentiviral vector expressing luciferase with a human Sp5 promoter consisting of a sequence of eight TCF/LEF binding sites. SW480 cells stably expressing the Sp5-Luc reporter gene and a hygromycin resistance gene were selected by treatment with 150 μg/mL of hygromycin for 7 days. These stably transduced SW480 cells were expanded in cell culture and used for all further screening activities. Each compound was dissolved in DMSO as a 10 mM stock and used to prepare compound source plates. Serial dilution (1:3, 10-point dose-response curves starting from 10 μM) and compound transfer was performed using the ECHO 550 (Labcyte, Sunnyvale, Calif.) into 384-well white solid bottom assay plates (Greiner Bio-One) with appropriate DMSO backfill for a final DMSO concentration of 0.1%. For Sp5-Luc reporter gene assays, the cells were plated at 4,000 cells/well in 384-well plates with medium containing 1% fetal bovine serum and incubated overnight at 37° C. and 5% CO2. Following incubation, 20 μl of BrightGlo luminescence reagent (Promega) was added to each well of the 384-well assay plates. The plates were placed on an orbital shaker for 2 min and then luminescence was quantified using the Envision (Perkin Elmer) plate reader. Readings were normalized to DMSO only treated cells, and normalized activities were utilized for EC50 calculations using the dose-response log (inhibitor) vs. response-variable slope (four parameters) nonlinear regression feature available in GraphPad Prism 5.0 (or Dotmatics). For EC50 of >10 μM, the percent inhibition at 10 μM is provided.

For another assay, the system named is SW480 colon cancer cells. Description: Cell viability assay (CellTiter-Blue), SW480 colon cancer cells. The conditions noted are these: Homo sapiens, 96 h, four days, CellTiter-Blue. How it is done: Representative compounds were screened using the following assay procedure to assess the effect on cell viability as described below.
Each compound was dissolved in DMSO as a 10 mM stock and used to prepare compound source plates. Serial dilution (1:3, 8-point dose-response curves from 10 μM to 0.0045 μM) and compound transfer was performed using the ECHO 550 (Labcyte, Sunnyvale, Calif.) into 96-well clear bottom, black-walled plates (Corning—Costar).
Approximately 2×10^3 SW480 colon cancer cells were seeded into each well and allowed to incubate in the presence or absence of compound for four days at 37° C./5% CO2. Eight replicates of DMSO-treated cells served as controls and cells treated with compound were performed in duplicate.
After incubation, 20 μL of CellTiter-Blue (Promega) was added to each well allowed to incubate for approximately 3 hours. This reagent was a buffered solution which contains resazurin, metabolically active cells were able to reduce rezarurin (blue) into resorufin (pink) which was highly fluorescent. This measured fluorescence was used as a readout for cell viability.
After incubation, the plates were read at Ex 560 nm Em 590 nm (Cytation 3, BioTek). Dose-response curves were generated and EC50 concentration values were calculated using non-linear regression curve fit in the GraphPad Prism (San Diego, Calif.) or Dotmatics' Studies Software (Bishops Stortford, UK). For EC50 of >10 μM, the percent inhibition at 10 μM is provided.
In general terms: The colour change of resazurin is a common sign of viable cells or microbes.

Turning to `CS(=O)(=O)NCc1cc(F)cc(-c2cccc3[nH]c(-c4n[nH]c5ccc(-c6cncc(NC(=O)C7CCCC7)c6)nc45)cc23)c1` [Compound 498, N-(5-(3-(4-(3-Fluoro-5-(methylsulfonamidomethyl)phenyl)-1H-indol-2-yl)-1H-pyrazolo[4,3-b]pyridin-5-yl)pyridin-3-yl)cyclopentanecarboxamide], the EC50 (in general, the midpoint of the concentration-response curve) amounted to 403 nM in assay [1], 106 nM in the assay on IL-6 (THP-1 cells), 306 nM in assay [2] and 827 nM with SW480 colon cancer cells.
Consider `CS(=O)(=O)NCc1cc(F)cc(-c2cccc3[nH]c(-c4n[nH]c5ccc(-c6cncc(CN7CCC(F)(F)C7)c6)nc45)cc23)c1` [Compound 502, N-(3-(2-(5-(5-((3,3-Difluoropyrrolidin-1-yl)methyl)pyridin-3-yl)-1H-pyrazolo[4,3-b]pyridin-3-yl)-1H-indol-4-yl)-5-fluorobenzyl)methanesulfonamide], for which the EC50 worked out at 148 nM in assay [1], 298 nM with IL-6 (THP-1 cells), 196 nM in assay [2] and 693 nM in the assay with SW480 colon cancer cells.
The matching figures for `CC(C)Nc1cncc(-c2ccc3[nH]nc(-c4cc5ncccc5[nH]4)c3n2)c1` [Compound 516, 5-(3-(1H-Pyrrolo[3,2-b]pyridin-2-yl)-1H-pyrazolo[4,3-b]pyridin-5-yl)-N-isopropylpyridin-3-amine]: 1970 nM, 37 nM, 61 nM and 145 nM.
Consider `CCCCC(=O)Nc1cncc(-c2ccc3[nH]nc(-c4cc5ncccc5[nH]4)c3n2)c1` [Compound 523, N-(5-(3-(1H-Pyrrolo[3,2-b]pyridin-2-yl)-1H-pyrazolo[4,3-b]pyridin-5-yl)pyridin-3-yl)pentanamide], for which the EC50 in assay [1] was 697 nM; in the assay with IL-6 (THP-1 cells), 20 nM; in assay [2] it was 550 nM; with SW480 colon cancer cells, 943 nM.
As to `Cn1cc(-c2ccc3[nH]nc(-c4cc5c(-c6cccc(F)c6)cccc5[nH]4)c3n2)cn1` [Compound 536, 3-(4-(3-Fluorophenyl)-1H-indol-2-yl)-5-(1-methyl-1H-pyrazol-4-yl)-1H-pyrazolo[4,3-b]pyridine], the EC50 in assay [1] is 230 nM; in the assay with IL-6 (THP-1 cells) it was 23 nM; in assay [2] it was 338 nM; with SW480 colon cancer cells, 2780 nM.
As to `CN(C)CCOc1cncc(-c2ccc3[nH]nc(-c4cc5c(-c6cccnc6)cccc5[nH]4)c3n2)c1` [Compound 591, N,N-Dimethyl-2-((5-(3-(4-(pyridin-3-yl)-1H-indol-2-yl)-1H-pyrazolo[4,3-b]pyridin-5-yl)pyridin-3-yl)oxy)ethan-1-amine], the EC50 in assay [1] came to 1160 nM; with IL-6 (THP-1 cells), 17 nM; in assay [2], 4280 nM; in the assay with SW480 colon cancer cells, 1090 nM.
For the molecule `Cc1ncc(-c2ccc3[nH]nc(-c4cc5ccccc5[nH]4)c3n2)n1C` [Compound 681, 5-(1,2-Dimethyl-1H-imidazol-5-yl)-3-(1H-indol-2-yl)-1H-pyrazolo[4,3-b] pyridine], the EC50 was 279 nM in assay [1], 17 nM in the assay with IL-6 (THP-1 cells), 640 nM in assay [2] and 728 nM with SW480 colon cancer cells.
`CS(=O)(=O)NCc1cc(F)cc(-c2cccc3[nH]c(-c4n[nH]c5ccc(C6CCNCC6)nc45)cc23)c1` [Compound 789, N-(3-Fluoro-5-(2-(5-(piperidin-4-yl)-1H-pyrazolo[4,3-b]pyridin-3-yl)-1H-indol-4-yl)benzyl)methanesulfonamide]: the EC50 is 9630 nM in assay [1], 2250 nM in the assay on IL-6 (THP-1 cells), 2950 nM in assay [2] and 5180 nM in the assay with SW480 colon cancer cells.
Regarding `CS(=O)(=O)NCc1cc(F)cc(-c2cccc3[nH]c(-c4n[nH]c5ccc(-c6cncc(OCc7ccccc7)c6)nc45)cc23)c1` [Compound 802, N-(3-(2-(5-(5-(Benzyloxy)pyridin-3-yl)-1H-pyrazolo[4,3-b]pyridin-3-yl)-1H-indol-4-yl)-5-fluorobenzyl)methanesulfonamide], the EC50 in assay [1] came out at 276 nM; in the assay with IL-6 (THP-1 cells), 473 nM; in assay [2], 433 nM; with SW480 colon cancer cells, 1190 nM.
